# Assay results taken from patent US6174907A, “Benzimidazole compounds containing 1,2,4-triazole ring, and compositions and methods of use containing the same” (Fuji Photo Film Co., Ltd., priority 1995, dated 2001).
# Like-named read-outs stand apart in the source and are kept apart here.
# What was measured:
# [1] = tested on: mouse peritoneal macrophages; test: Suppression of foaming of macrophages (cholesterol ester synthesis) in vitro; type: cell-based, mouse (female ICR); details: 5 μM, 16 hours, relative to control as 100%, smaller value = more potent suppression; for activity at 5 µM: Mus musculus, Peritoneal macrophage, read-out: Rate of CE synthesis (%)
# Method: Activity of the compounds of the present invention for suppressing the foaming of macrophages
# (§1) Activity of the compounds of the present invention for suppressing the foaming of macrophages, which triggers arterial sclerosis, was examined by an in vitro experiment using mouse peritoneal macrophages. 15-Week old female ICR mice (Nippon SLC) were subjected to bleeding by cutting off their cervicalis, and Hanks buffer (Nippon Seiyaku) was injected into their peritoneal cavities. After abdominal regions of the mice were massaged, the buffer was recovered immediately, and then the resulting buffer was centrifuged at 1,000 r.p.m. for five minutes to collect peritoneal macrophages. Then, the collected macrophages were suspended in GTI medium (Wako Pure Chemical Industries), and inoculated onto a 24-well microtiter plate. After the macrophages were cultivated at 37° C. under 5% CO2 for two hours, the culture medium was changed with Dulbecco Modified Eagle Medium (MEM, Nippon Seiyaku). The macrophages were further cultivated at 37° C. under 5% CO2 for 16 hours, and then a test compound and liposomes were added to the culture.
# 1) Test compound: dissolved in DMSO (Wako Pure Chemical Industries),
# PC: Phosphatidylcholine (Funakoshi);
# PS: Phosphatidylserine (Funakoshi);
# DCP: Dicetylphosphate (Funakoshi);
# CHOL: Cholesterol (Sigma)
# (§2) After cultivation was further continued at 37° C. under 5% CO2 for 16 hours, lipid fraction was extracted with chloroform and methanol. The extracted lipid fraction was dissolved in isopropyl alcohol, and the produced cholesterol ester (CE) was quantified by an enzymatic luminescence method. Yield of the cholesterol ester was calculated as a relative ratio based on yield of the control as 100% where no test compound was added. Cytotoxicity was examined microscopically by observing morphological alteration of cells. In the tables, compound numbers correspond to those of the compounds of present invention described in the examples.
# [2] = tested on: mouse peritoneal macrophages; test: Cytotoxicity examined microscopically (morphological alteration of cells); type: cell-based, mouse (female ICR); details: 5 μM, observed microscopically
# Method: as §1, §2
Structure (SMILES),activity at 5 µM ([1]; Table 4),Cytotoxicity ([2]; Table 4),activity at 5 µM ([1]; Table 3),Cytotoxicity ([2]; Table 3),Rate of CE synthesis (%) ([1]; Table 4)
"c1ccc(SCCCCCSc2nc3ccccc3[nH]2)nc1 [Compound B30, 5-(2'-Benzimidazolylthio)-1-(2""-pyridylthio)pentane]",9%,Not observed,,,
"Cc1cc2nc(SCCCCCSc3nc4ccccc4[nH]3)[nH]c2cc1C [Compound A10, 1-(2'-(5',6'-dimethylbenzimidazolyl)thio)-5-(2""-benzimidazolylthio)pentane]",,,20%,Not observed,
c1ccc2nc(SCCCCCSc3nc4ccccc4[nH]3)ccc2c1 [Compound B57],26%,Not observed,,,
Cc1ccc2[nH]c(SCCCCCSc3nc4ccccc4s3)nc2c1 [Compound A36],,,21%,Not observed,
CCC(=O)n1c(SCCCCCSc2nc3cc(S(=O)(=O)NC)ccc3n2C)nc2ccccc21 [Compound A25],,,32%,Not observed,
c1ccc(SCCCCCCCCCCCc2nc3ccccc3[nH]2)nc1 [Compound B48],41%,Not observed,,,
O=[N+]([O-])c1ccc2[nH]c(CCCCCSc3nc4ccccc4[nH]3)nc2c1 [Compound A30],,,52%,Not observed,
Cc1cc2nc(CCCCCSc3ccccn3)[nH]c2cc1C [Compound B45],48%,Not observed,,,
c1ccc(-c2nnc(SCCCCCSc3nc4ccccc4[nH]3)o2)cc1 [Compound B26],12%,Not observed,,,
Cn1cnnc1SCCCCCSc1nc2ccccc2[nH]1 [Compound B6],22%,Not observed,,,
CC(=O)Nc1nnc(SCCCCCSc2nc3ccccc3[nH]2)s1 [Compound B17],18%,Not observed,,,
c1ccc(-n2nnnc2SCCCCCSc2nc3ccccc3[nH]2)cc1 [Compound B12],14%,Not observed,,,
CSc1nc(C)cc(SCCCCCSc2nc3ccccc3[nH]2)n1 [Compound B56],18%,Not observed,,,
"c1ccc(CCCCCSc2nc3ccccc3[nH]2)nc1 [Compound B43, 1-(2'-benzimidazolylthio)-5-(2""-pyridyl)pentane]",,Not observed,,,12%
"Oc1ccc2[nH]c(SCCCCCSc3nc4ccccc4[nH]3)nc2c1 [Compound A6, 1-(2'-benzimidazolylthio)-5-(2""-(5""-hydroxybenzimidazolyl)thio)pentane]",,,46%,Not observed,
c1ccc2[nH]c(SCCCCCSc3nnc(-c4ccncc4)o3)nc2c1 [Compound B24],9.5%,Not observed,,,
CCOC(=O)c1ccc2[nH]c(SCCCCCSc3ccccn3)nc2c1 [Compound B36],26%,Not observed,,,
O=[N+]([O-])c1ccc2[nH]c(CCCCCSc3ccccn3)nc2c1 [Compound B46],36%,Not observed,,,
c1ccc2[nH]c(SCCCCCSc3ccncc3)nc2c1 [Compound B28],7.6%,Not observed,,,
CCCCCCCCn1nnnc1SCCCCCSc1nc2ccccc2[nH]1 [Compound B11],18%,Not observed,,,
c1cnc2c(SCCCCCSc3nc4ccccc4[nH]3)cccc2c1 [Compound B62],25%,Not observed,,,
"Cc1cc2nc(CCCCCSc3nc4ccccc4[nH]3)[nH]c2cc1C [Compound A28, 2-(5-(2'-benzimidazolylthio)pentyl)-5,6-dimethylbenzimidazole]",,,49%,Not observed,
S=c1sc(SCCCCCSc2nc3ccccc3[nH]2)nn1-c1ccccc1 [Compound B22],21%,Not observed,,,

Structure (SMILES),activity at 5 µM ([1]; Table 4),Cytotoxicity ([2]; Table 4),activity at 5 µM ([1]; Table 3),Cytotoxicity ([2]; Table 3),Rate of CE synthesis (%) ([1]; Table 4)
"Cn1c(SCCCCCSc2ccccn2)nc2ccccc21 [Compound B64, 5-(2'-(1'-methylbenzimidazolyl)thio)-1-(2""-pyridylthio)pentane]",24%,Not observed,,,
"COc1ccc2[nH]c(SCCCCCSc3nc4ccccc4[nH]3)nc2c1 [Compound A5, 1-(2'-benzimidazolylthio)-5-(2""-(5""-methoxybenzimidazolyl)thio)pentane]",,,39%,Not observed,
CC(=O)Nc1nnc(SCCCCCSc2nc3ccccc3[nH]2)n1C [Compound B9],35%,Not observed,,,
Cc1cc(O)nc(SCCCCCSc2nc3ccccc3[nH]2)n1 [Compound B52],49%,Not observed,,,
Cc1ccnc(SCCCCCSc2nc3ccccc3[nH]2)c1 [Compound B41],19%,Not observed,,,
"Cc1ccc2[nH]c(SCCCCCSc3nc4cc(Cl)c(Cl)cc4[nH]3)nc2c1 [Compound A14, 1-(2'-(5',6'-dichlorobenzimidazolyl)thio)-5-(2""-(5""-methylbenzimidazolyl)thio)pentane]",,,42%,Not observed,
Cc1cc(C)nc(SCCCCCSc2nc3ccccc3[nH]2)n1 [Compound B51],24%,Not observed,,,
"c1ccc2[nH]c(CCCCCCCCCCCSc3nc4ccccc4[nH]3)nc2c1 [Compound A32, 2-(11-(2'-benzimidazolylthio)undecyl)benzimidazole]",,,62%,Not observed,
CN(C)C(=O)c1ccc2[nH]c(SCCCCCSc3ccccn3)nc2c1 [Compound B39],28%,Not observed,,,
c1ccc(SCCCCCCSc2nc3ccccc3[nH]2)nc1 [Compound B31],27%,Not observed,,,
"c1ccc(-c2ccc3oc(SCCCCCSc4nc5ccccc5[nH]4)nc3c2)cc1 [Compound A39, 1-(2'-benzimidazolylthio)-5-(2""-(5""-phenylbenzoxazolyl)thio)pentane]",,,24%,Not observed,
"Cc1ccc2[nH]c(SCCCCCSc3nc4cc(Cl)ccc4[nH]3)nc2c1 [Compound A3, 1-(2-(5'-chlorobenzimidazolyl)thio)-5-(2""-(5""-methylbenzimidazolyl)thio)pentane]",,,36%,Not observed,
"CCOc1ccc2nc(SCCCCCSc3nc4ccccc4[nH]3)sc2c1 [Compound A35, 1-(2'-benzimidazolylthio)-5-(2""-(6""-ethoxybenzothiazolyl)thio)pentane]",,,25%,Not observed,
Oc1ccnc(SCCCCCSc2nc3ccccc3[nH]2)c1 [Compound B53],52%,Not observed,,,
Cc1ccc2[nH]c(SCCOCCOCCSc3nc4ccccc4[nH]3)nc2c1 [Compound A22],,,20%,Not observed,
CCC(=O)Nc1ccc2[nH]c(SCCCCCSc3ccccn3)nc2c1 [Compound B37],20%,Not observed,,,
"FC(F)(F)c1cc2[nH]c(SCCCCCSc3nc4ccccc4[nH]3)nc2cc1Cl [Compound A16, 1-(2'-(5'-chloro-6'-trifluoromethylbenzimidazolyl)thio)-5-(2""-benzimidazolylthio)pentane]",,,34%,Not observed,
"c1ccc2[nH]c(SCCCCCSc3ncc[nH]3)nc2c1 [Compound B1, 1-(2'-benzimidazolylthio)-5-(2""-imidazolylthio)pentane]",41%,Not observed,,,
"Cc1ccc2[nH]c(SCCCCSc3nc4ccccc4[nH]3)nc2c1 [Compound A18, 1-(2'-(5'-methylbenzimidazolyl)thio)-4-(2""-benzimidazolylthio)butane]",,,52%,Not observed,
Cc1cc2nc(SCCCCCSc3ccccn3)[nH]c2cc1C [Compound B33],18%,Not observed,,,
"Clc1cc2nc(SCCCCCCCCSc3nc4ccccc4[nH]3)[nH]c2cc1Cl [Compound A13, 1-(2'-(5',6'-dichlorobenzimidazolyl)thio)-8-(2""-benzimidazolylthio)octane]",,,58%,Not observed,
Cn1nnnc1SCCCCCSc1nc2ccccc2[nH]1 [Compound B10],32%,Not observed,,,
Cc1ccc2[nH]c(SCCOCCSc3nc4ccccc4[nH]3)nc2c1 [Compound A21],,,24%,Not observed,
